This test addresses bromodomain of SMARCA2 protein (Homo sapiens (Human), UniProt P40337+P51531). The experiment in a line: SMARCA2 bromodomain ternary binding TR-FRET assay (with VCB). As to conditions: with saturating VCB (5 μM); read-out: IC50 (SM 2_T) ternary binding potency in SMARCA2 FRET assay. An excerpt: Recombinant bromodomain of SMARCA2 protein was purchased from Active Motif (Catalog #: 31449). VHL/ElonginB/ElonginC (VCB)N-terminal his6-tagged VHL (“his6” disclosed as SEQ ID NO: 4) (uniprot accession number P40337; M54-D213; […] […] […] (SEQ ID NO: 1)), Elongin B (Q15370; M1-K104; […] […] (SEQ ID NO: 2)), Elongin C (Q15369; M17-C112; […] […] (SEQ ID NO: 3)) complex were co-expressed and the complex was purified by Ni-affinity, TEV protease was then used to remove his6-tagged (SEQ ID NO: 4), and the complex was further purified by size-exclusion chromatography before use.
The inhibitory activity of compounds was evaluated in vitro using TR-FRET assay with white 384-well low volume microplate (PerkinElmer ProxiPlate Plus), in which the compound competes the same binding site with the ligand, and thus lead to dose-dependent TR-FRET signal reduction. The cooperativity of the compounds for ternary complex formation with E3 ligase was evaluated in the absence or presence of saturating concentrations of VCB. Testing compounds were dissolved in DMSO at […] and tested in 9-dose IC50. The assay mixture was prepared by mixing SMARCA2 (10 nM final), biotinylated probe (25 nM final), and assay buffer or VCB (5 μM) in 1×AlphaLISA Epigenetics Buffer (PerkinElmer AL008F) with 1 mM TCEP. The compounds in DMSO were added to each well in 3-fold serial dilution by dispenser (TECAN D300E) and incubate for 20 minutes at room temperature before addition of detection reagents, Lance Eu W1024 anti-6×His (0.6 nM final, PerkinElmer AD0110) and Streptavidin Surelight APC (6 nM final, PerkinElmer CR130-100). The plate was then sealed and further incubated at 4° C. overnight in dark, and then was read by Envision multimode plate reader (PerkinElmer, 2102-0010). The ratio of florescence signal at 665/620 was used in data analysis. Percentage inhibition was calculated by % inhibition=100×(FDMSO-F)/(FDMSO-FPC), in which FDMSO is DMSO control, and FPC is positive control. IC50 values were determined from dose response curve by fitting the percent inhibition against compound concentration using GraphPad Prism software.
In general terms: Time-resolved FRET reads energy transfer from a long-lived donor to a nearby acceptor.

What is called IC50 is the concentration needed to halve the response being measured.

Molecules are shown by their SMILES.

bromodomain of SMARCA2 protein, sequence (P51531 whole entry, looked up): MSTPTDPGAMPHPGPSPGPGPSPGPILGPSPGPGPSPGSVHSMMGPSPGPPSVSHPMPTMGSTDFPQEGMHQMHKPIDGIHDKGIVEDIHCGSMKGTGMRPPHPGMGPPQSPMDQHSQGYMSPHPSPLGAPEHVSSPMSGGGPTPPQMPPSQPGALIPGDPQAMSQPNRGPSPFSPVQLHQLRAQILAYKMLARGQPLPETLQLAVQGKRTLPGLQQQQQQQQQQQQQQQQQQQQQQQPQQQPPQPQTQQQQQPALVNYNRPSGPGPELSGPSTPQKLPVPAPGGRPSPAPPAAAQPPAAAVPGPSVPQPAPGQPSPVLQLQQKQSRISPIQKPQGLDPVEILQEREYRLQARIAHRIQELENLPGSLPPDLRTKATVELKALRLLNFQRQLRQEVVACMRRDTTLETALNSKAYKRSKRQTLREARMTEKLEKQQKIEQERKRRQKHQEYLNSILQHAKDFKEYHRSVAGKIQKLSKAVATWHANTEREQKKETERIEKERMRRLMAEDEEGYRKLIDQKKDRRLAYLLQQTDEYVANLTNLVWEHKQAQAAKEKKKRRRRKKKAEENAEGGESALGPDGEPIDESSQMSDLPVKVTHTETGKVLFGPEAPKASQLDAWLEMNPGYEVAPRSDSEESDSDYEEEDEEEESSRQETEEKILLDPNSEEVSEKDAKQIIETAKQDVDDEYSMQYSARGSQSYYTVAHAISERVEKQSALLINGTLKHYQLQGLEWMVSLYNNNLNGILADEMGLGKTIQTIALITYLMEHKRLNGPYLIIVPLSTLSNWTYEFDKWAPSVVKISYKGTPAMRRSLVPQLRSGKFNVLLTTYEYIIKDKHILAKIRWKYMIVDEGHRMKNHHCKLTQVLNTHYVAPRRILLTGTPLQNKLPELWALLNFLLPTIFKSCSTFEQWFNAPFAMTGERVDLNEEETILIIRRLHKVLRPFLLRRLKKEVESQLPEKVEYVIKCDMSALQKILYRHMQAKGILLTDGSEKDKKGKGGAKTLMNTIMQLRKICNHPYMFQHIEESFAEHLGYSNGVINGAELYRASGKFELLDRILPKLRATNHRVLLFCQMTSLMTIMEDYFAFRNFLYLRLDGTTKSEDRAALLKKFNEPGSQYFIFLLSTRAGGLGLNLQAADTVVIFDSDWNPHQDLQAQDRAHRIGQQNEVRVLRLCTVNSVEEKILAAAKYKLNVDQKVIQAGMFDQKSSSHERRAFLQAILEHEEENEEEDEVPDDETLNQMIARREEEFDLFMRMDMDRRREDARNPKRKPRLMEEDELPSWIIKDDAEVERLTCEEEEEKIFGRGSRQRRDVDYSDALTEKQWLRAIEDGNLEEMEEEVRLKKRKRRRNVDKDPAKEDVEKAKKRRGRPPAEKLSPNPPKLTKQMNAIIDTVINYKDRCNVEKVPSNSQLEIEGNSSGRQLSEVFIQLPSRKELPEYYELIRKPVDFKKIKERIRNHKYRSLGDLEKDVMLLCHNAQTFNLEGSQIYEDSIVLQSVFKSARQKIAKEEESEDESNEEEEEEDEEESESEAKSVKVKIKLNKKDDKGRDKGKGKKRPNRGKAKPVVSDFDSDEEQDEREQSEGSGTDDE
bromodomain of SMARCA2 protein, sequence (P40337 whole entry, looked up): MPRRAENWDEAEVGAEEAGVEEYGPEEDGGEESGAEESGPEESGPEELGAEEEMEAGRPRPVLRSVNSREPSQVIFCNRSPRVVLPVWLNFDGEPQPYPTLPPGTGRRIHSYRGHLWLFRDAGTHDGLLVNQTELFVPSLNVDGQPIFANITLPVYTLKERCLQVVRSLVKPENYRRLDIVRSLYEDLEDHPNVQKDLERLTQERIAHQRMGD
bromodomain of SMARCA2 protein, sequence (Q15370 whole entry partner, looked up): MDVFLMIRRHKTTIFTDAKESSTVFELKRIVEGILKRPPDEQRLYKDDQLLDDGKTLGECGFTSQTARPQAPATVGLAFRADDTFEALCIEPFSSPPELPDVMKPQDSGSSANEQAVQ
bromodomain of SMARCA2 protein, sequence (Q15369 whole entry partner, looked up): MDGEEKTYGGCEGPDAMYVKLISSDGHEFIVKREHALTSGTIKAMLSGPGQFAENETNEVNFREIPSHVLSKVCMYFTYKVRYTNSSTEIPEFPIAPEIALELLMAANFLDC

For `Cc1ncsc1-c1ccc([C@H](C)NC(=O)[C@@H]2C[C@@H](O)CN2C(=O)[C@@H](NC(=O)CN2CCN3c4cc(-c5ccccc5O)nnc4NCC3C2)C(C)(C)C)cc1` (single isomer, unassigned) [Example 1b], the IC50 is under 100 nM. Under `Cc1scnc1-c1ccc(CNC(=O)[C@@H]2C[C@@H](O)CN2C(=O)[C@@H](NC(=O)CN2CCN3c4cc(-c5ccccc5O)nnc4NCC3C2)C(C)(C)C)cc1` (single isomer, unassigned) [Example 2a] stands 100 to 1000 nM. The same measure for `Cc1scnc1-c1ccc(CNC(=O)[C@@H]2C[C@@H](O)CN2C(=O)[C@@H](NC(=O)CN2CCN3c4cc(-c5ccccc5O)nnc4NCC3C2)C(C)(C)C)cc1` (single isomer, unassigned) [Example 2b]: under 100 nM.

For the origin of these results see patent US20240018158A1, “BRM TARGETING COMPOUNDS AND ASSOCIATED METHODS OF USE” (Prelude Therapeutics Incorporated, priority 2020, published 2024).
